According to PMC8272148, “Antioxidant Serine-(NSAID) Hybrids with Anti-Inflammatory and Hypolipidemic Potency” (Molecules, 2021):
“And” between values parts separate entries of the source, which are not always exact repeats. Equal values may be shown once. Marks after values point to notes of the source that are not given here.

Tests used:
[1] = tested on: rat hepatic microsomal membrane lipid peroxidation; test: Inhibition of rat hepatic microsomal membrane lipid peroxidation (ferrous ascorbate induced, TBA reactive material); type: biochemical; conditions: after 45 min of incubation; for IC50: rat hepatic microsomal membrane; for Inhibition of Lipid Peroxidation, percent at 1 mM: 1 mM compound
Procedure: The peroxidation of the heat-inactivated rat hepatic microsomal fraction was induced by ferrous ascorbate. The studied compounds, in dimethylsulfoxide, were added at concentrations of 1 μM–1 mM. Aliquots were taken from the incubation mixture (37 °C) for 45 min. Lipid peroxidation was assessed spectrophotometrically (535/600 nm) as a 2-thiobarbituric acid reactive material. The incubation mixture and solvents were found not to interfere with the assay.

[2] = target: T1, soybean lipoxygenase 1-B (Glycine max, UniProt P08170); test: In vitro inhibition of soybean lipoxygenase; type: biochemical; conditions: linoleic acid (100 μM) as substrate, after 7 min of incubation; for inhibition at 100 µM: 100 μM compound, read-out: Lipoxygenase percent inhibition at 100 μM
T1 sequence (P08170 1-839): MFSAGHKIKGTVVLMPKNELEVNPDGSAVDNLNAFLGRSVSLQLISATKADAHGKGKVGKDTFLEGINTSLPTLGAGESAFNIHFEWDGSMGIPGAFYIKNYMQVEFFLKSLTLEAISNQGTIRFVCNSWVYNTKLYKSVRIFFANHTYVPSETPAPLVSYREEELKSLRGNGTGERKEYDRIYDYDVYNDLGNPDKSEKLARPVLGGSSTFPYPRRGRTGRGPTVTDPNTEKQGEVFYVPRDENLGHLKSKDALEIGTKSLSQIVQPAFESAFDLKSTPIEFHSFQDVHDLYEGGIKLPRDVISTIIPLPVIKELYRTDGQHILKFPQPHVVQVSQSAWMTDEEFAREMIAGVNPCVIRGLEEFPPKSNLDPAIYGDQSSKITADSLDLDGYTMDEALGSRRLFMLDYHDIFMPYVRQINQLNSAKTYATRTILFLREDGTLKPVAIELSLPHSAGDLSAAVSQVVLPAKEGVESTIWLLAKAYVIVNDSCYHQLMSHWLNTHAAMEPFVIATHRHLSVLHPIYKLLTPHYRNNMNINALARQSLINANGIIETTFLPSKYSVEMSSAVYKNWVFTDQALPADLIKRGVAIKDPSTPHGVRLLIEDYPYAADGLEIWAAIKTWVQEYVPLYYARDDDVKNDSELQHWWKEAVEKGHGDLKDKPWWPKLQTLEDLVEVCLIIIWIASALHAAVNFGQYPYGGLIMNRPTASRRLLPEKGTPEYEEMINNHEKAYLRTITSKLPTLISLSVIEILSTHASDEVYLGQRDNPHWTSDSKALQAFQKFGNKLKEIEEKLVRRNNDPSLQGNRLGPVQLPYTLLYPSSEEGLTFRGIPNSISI
Procedure: The reaction mixture contained the test compounds, dissolved in absolute ethanol (0.1 mL) at various concentrations, or the solvent (control, 0.1 mL), soybean lipoxygenase dissolved in 0.9% NaCl solution (250 u/mL, 0.2 mL) and sodium linoleate (100 μM) in Tris–HCl buffer, pH 9.0 (2.7 mL). The reaction was followed for 7 min at 28 °C, recording the absorbance of a conjugated diene structure at 234 nm, due to the formation of 13-hydroperoxy-linoleic acid. […] For the estimation of the type of inhibition, the above experiments were repeated, using sodium linoleate at 1 mM, which is higher than the saturating substrate concentration.

[3] = Interaction with the stable radical DPPH; conditions: DPPH 200 μM, after 30 min
Procedure: Compounds, dissolved in absolute ethanol, at concentrations of 25–200 μM, were added to an equal volume of an ethanolic solution of DPPH (final concentration 200 μM) at room temperature (22 ± 2 °C). Absorbance (517 nm) was recorded after 30 min [26]. For the calculation of percent interaction, the residual absorbance of DPPH Ai (at a fixed concentration) after its interaction with the examined compounds (at various concentrations) was compared with the control absorbance Ao, without the addition of compounds, following the equation: (1) Percent interaction=100−(Ai/Ao×100)

[4] = tested on: carrageenan-induced rat paw edema; test: Carrageenan-induced rat paw edema; type: in vivo, Wistar rats; conditions: ip, 0.15 mmol/kg i.p., 3.5 h after carrageenan, vs controls, read-out: % Edema Reduction
Procedure: An amount of 0.1 mL of an aqueous carrageenan solution (1% w/v) was injected into the hind paw of adult Wistar rats (6 rats were used for each compound). The tested compounds (in water with a few drops of Tween 80) were administered i.p. (0.15 mmol/kg) 5 min before the carrageenan administration. The produced edema, after 3.5 h, was estimated as paw weight increase.

[5] = tested on: Triton WR1339 (tyloxapol)-induced hyperlipidemia; test: Triton WR1339 (tyloxapol)-induced hyperlipidemia in rats; type: in vivo, Wistar rats; conditions: 150 μmol/kg i.p., rat plasma, 24 h, tyloxapol 200 mg/kg i.p.
Procedure: The examined compounds (0.15 mmol/kg) were administered i.p. one hour later. Blood was taken from the aorta after 24 h, for the determination of plasma total cholesterol, LDL cholesterol and triglyceride concentration, using commercial kits.

IC50 [2]	IC50 [1]	inhibition at 100 µM [2]	SMILES	Inhibition of Lipid Peroxidation, percent at 500 μM ([1]; 500 μM compound)	Percent Interaction with DPPH ([3]; compound 100 μM)	Percent Interaction with DPPH ([3]; compound 200 μM)	inhibition in vivo at 150 µmol/kg [4]	Percent Interaction with DPPH ([3]; compound 25 μM)	Percent Interaction with DPPH ([3]; compound 50 μM)	Inhibition of Lipid Peroxidation, percent at 1 mM [1]	% Reduction LDL-C (LDL cholesterol) [5]	% Reduction TC (total cholesterol) [5]	% Reduction TG (triglycerides) [5]	Inhibition of Lipid Peroxidation, percent at 100 μM ([1]; 100 μM compound)	Inhibition of Lipid Peroxidation, percent at 50 μM ([1]; 50 μM compound)
13 µM			CCOC(=O)C(COC(=O)C(C)c1ccc(CC(C)C)cc1)NC(=O)c1cc(C(C)(C)C)c(O)c(C(C)(C)C)c1 (centres unmarked) [Compound 8, Ehyl 2-(3,5-di-tert-butyl-4-hydroxybenzamido)-3-((2-(4-isobutylphenyl)propanoyl)oxy)propanoate]	30%/500 μM	4.0%	18.7%	48%								
	3.4 µM	< 15%	CCOC(=O)C(COC(=O)C(C)c1ccc(CC(C)C)cc1)NC(=O)C1(C)CCc2c(C)c(O)c(C)c(C)c2O1 (centres unmarked) [Compound 7, Ethyl 2-(6-hydroxy-2,5,7,8-tetramethylchroman-2-carboxamido)-3-((2-(4-isobutylphenyl)propanoyl)oxy)propanoate]		89.0%	91.6%	45%	22.6%	54.2%						
	2.8 µM	23%	CCOC(=O)C(COC(=O)C(C)c1cccc(C(=O)c2ccccc2)c1)NC(=O)C1(C)CCc2c(C)c(O)c(C)c(C)c2O1 (centres unmarked) [Compound 10, Ethyl 3-((2-(3-benzoylphenyl)propanoyl)oxy)-2-(6-hydroxy-2,5,7,8-tetramethylchroman-2-carboxamido)propanoate]		64.6%	87.0%	42%	12.4%	30.1%						
86 µM			CCOC(=O)C(COC(=O)C(C)c1cccc(C(=O)c2ccccc2)c1)NC(=O)c1cc(C(C)(C)C)c(O)c(C(C)(C)C)c1 (centres unmarked) [Compound 11, Ethyl 3-((2-(3-benzoylphenyl)propanoyl)oxy)-2-(3,5-di-tert-butyl-4-hydroxybenzamido)propanoate]			lower than 10%	67%			30%/1 mM	51.2 ** %	57.6 ** %	44.5 * %		
200 µM	163 µM		CCOC(=O)C(CO)NC(=O)c1cc(C(C)(C)C)c(O)c(C(C)(C)C)c1 (centres unmarked) [Compound 5, Ethyl 2-(3,5-di-tert-butyl-4-hydroxybenzamido)-3-hydroxypropanoate]			lower than 10%	47%				66.0 ** %	52.3 ** %	62.0 ** %		
156 µM	22 µM		CCOC(=O)C(CO)NC(=O)/C=C/c1cc(C(C)(C)C)c(O)c(C(C)(C)C)c1 (centres unmarked) [Compound 6, (E)-ethyl 2-(3-(3,5-di-tert-butyl-4-hydroxyphenyl)acrylamido)-3-hydroxypropanoate]		48.6%	88.7%	44%	17.9%	21.2%						
90 µM			CCOC(=O)C(COC(=O)C(C)c1cccc(C(=O)c2ccccc2)c1)NC(=O)/C=C/c1cc(C(C)(C)C)c(O)c(C(C)(C)C)c1 (centres unmarked) [Compound 12, (E)-ethyl 3-((2-(3-benzoylphenyl)propanoyl)oxy)-2-(3-(3,5-di-tert-butyl-4-hydroxyphenyl)acrylamido)propanoate]		53.8%	94.0%	59%	20.0%	24.7%		56.2 * %	53.4 ** %	33.2 * %	20%/100 μM	
80 µM			CCOC(=O)C(COC(=O)C(C)c1ccc(CC(C)C)cc1)NC(=O)/C=C/c1cc(C(C)(C)C)c(O)c(C(C)(C)C)c1 (centres unmarked) [Compound 9, (E)-ethyl 2-(3-(3,5-di-tert-butyl-4-hydroxyphenyl)acrylamido)-3-((2-(4-isobutylphenyl)propanoyl)oxy)propanoate]		58.0%	90.9%	52%	15.5%	31.8%		70% and 70.1 * %	61% and 61.2 ** %	52% and 52.1 ** %		20%/50 μM
			CC(C)Cc1ccc(C(C)C(=O)O)cc1 (centres unmarked) [Ibuprofen, ibuprofen, reference compound]				36%								
> 300 µM	25 µM		Cc1c(C)c2c(c(C)c1O)CCC(C)(C(=O)O)O2 (centres unmarked) [Trolox, 6-hydroxy-2,5,7,8-tetramethylchroman-2-carboxylic acid, reference compound]		90.0%	92.0%		22.0%	38.0%						
		15%	CC(C)(C)c1cc(C(=O)NC(CO)C(=O)O)cc(C(C)(C)C)c1O (centres unmarked) [Compound 2, 2-(3,5-Di-tert-butyl-4-hydroxybenzamido)-3-hydroxypropanoic acid]			lower than 10%	44%			40%/1 mM					
	150 µM	30%	Cc1c(C)c2c(c(C)c1O)CCC(C)(C(=O)NC(CO)C(=O)O)O2 (centres unmarked) [Compound 1, 3-Hydroxy-2-(6-hydroxy-2,5,7,8-tetramethylchroman-2-carboxamido)propanoic acid]		87.0%	90.4%	43%	19.6%	48.0%						
	80 µM	20%	CC(C)(C)c1cc(/C=C/C(=O)NC(CO)C(=O)O)cc(C(C)(C)C)c1O (centres unmarked) [Compound 3, (E)-2-(3-(3,5-di-tert-butyl-4-hydroxyphenyl)acrylamido)-3-hydroxypropanoic acid]		35.9%	82.3%	27%	12.9%	17.4%						

SMILES	IC50 [2]	IC50 [1]	inhibition at 100 µM [2]	Inhibition of Lipid Peroxidation, percent at 500 μM ([1]; 500 μM compound)	Percent Interaction with DPPH ([3]; compound 100 μM)	Percent Interaction with DPPH ([3]; compound 200 μM)	inhibition in vivo at 150 µmol/kg [4]	Percent Interaction with DPPH ([3]; compound 25 μM)	Percent Interaction with DPPH ([3]; compound 50 μM)	Inhibition of Lipid Peroxidation, percent at 1 mM [1]	% Reduction LDL-C (LDL cholesterol) [5]	% Reduction TC (total cholesterol) [5]	% Reduction TG (triglycerides) [5]	Inhibition of Lipid Peroxidation, percent at 100 μM ([1]; 100 μM compound)	Inhibition of Lipid Peroxidation, percent at 50 μM ([1]; 50 μM compound)
CC(C(=O)O)c1cccc(C(=O)c2ccccc2)c1 (centres unmarked) [Ketoprofen, ketoprofen, reference compound]	220 µM														
